Data taken from US20250339447A1, “19-NOR C3,3-DISUBSTITUTED C21-N-PYRAZOLYL STEROID AND METHODS OF USE THEREOF” (Sage Therapeutics, Inc., priority 2018, published 2025).

Legend:
[1] = tested on: adult patients diagnosed with MDD (MADRS total score ≥32 and HAM-D total score ≥22); experiment: Double-blind, randomized placebo-controlled Phase 3 study in Major Depressive Disorder (Example 5); format: in vivo, human; conditions: for overall incidence of patients who experienced AEs: 14-day treatment period and 28-day follow up, placebo 48.9%; for Fatigue incidence: placebo 2.6%; for Sedation incidence / treatment emergent AEs leading to study drug discontinuation: placebo 3.2%; for Dizziness incidence: placebo 3.7%; for Somnolence incidence: placebo 4.2%; for Nausea incidence: placebo 4.7%; for Diarrhea incidence: placebo 5.3%; for Headache incidence: treatment and 28-day follow up, placebo 7.4%
Experimental: Compound 1 was evaluated in a double-blind, randomized placebo-controlled Phase 3 study in Major Depressive Disorder (MDD). The evaluated the efficacy, safety and pharmacokinetics of Compound 1 in adult patients diagnosed with MDD (MADRS total score ≥32 and a HAM-D total score ≥22).
Compound 1 was administered to a patient, either in 20 mg daily doses once a day for 14 days or 30 mg once a day for 14 days.
Post-hoc analyses were conducted to evaluate the effects of performance factors of Compound 1 in the primary analysis, in patients with measurable drug concentrations, in patients with HAM-D≥24, and in patients with measurable drug concentrations and HAM-D≥24, and including the primary outcome at Day 15 (FIG. 11).

[2] = Previous clinical trials, morning versus evening administration; format: in vivo, human
From the text: (§1) Dose adjustments to 20-mg of Compound 1 were permitted; 20-mg of Compound 1 was anticipated to be well tolerated as it was lower than the maximum tolerated dose level.

subjects with MDD [3] = experiment: Phase 2 study in subjects with MDD (dose justification); format: in vivo, human; conditions: 30 mg per day
From the text: as §1

[4] = tested on: synaptic and extrasynaptic GABAA receptors; experiment: Modulation of GABAA receptors; conditions: stated in background
subjects with MDD [5] = experiment: HAM-D course to Day 42 after a Compound 1 treatment cycle (source study not given); format: in vivo, human
From the text: Because of this, most subjects were eligible (i.e., PHQ-9 ≥10 and HAM-D ≥20 confirmed over 2 weeks) for a Compound 1 treatment cycle when needed; a 2-week period was required to establish a new MDE (DSM-5).

[6] = tested on: female subjects diagnosed with severe postpartum depression; experiment: Placebo-controlled study of Compound 1 capsules in severe postpartum depression (Example 1); format: in vivo, human
Experimental: Compound 1 was investigated for use in subjects with depression. Female subjects (18-65 years old) diagnosed with severe postpartum depression (PDD) with a HAM-D total score of greater than or equal to 26 at screening and Day 1 were used in the investigation. The subjects were dosed once per day with capsules containing 30 mg of Compound 1. The dose could be adjusted to capsules containing 20 mg of Compound 1 if the 30 mg dose was not tolerated. Subjects not dosed with Compound 1 were dosed with a placebo. In total, 78 subjects were treated with Compound 1 at 30 mg and 73 subjects were treated with placebo.
Assuming a 2-sided test at an alpha level of 0.05, a sample size of approximately 65 evaluable subjects per treatment group provided 90% power to detect a placebo-adjusted treatment difference of approximately 4 points in the primary endpoint, change from baseline in HAM-D total score at Day 15 assuming standard deviation (SD) of 7 points. The change from baseline in the HAM-D total score was analyzed using a mixed effects model for repeated measures (MMRM). The model included the change from baseline at each visit as the dependent variable. The main comparison was (difference in least mean square [LSMEAN]) between Compound 1 Capsules and placebo at the 15-day timepoint.
For Model-based point estimates (i.e., LSMEAN, 95% confidence intervals, and p-values), an unstructured covariance structure was used to model the within-subject errors. If there was a convergence issue with the unstructured covariance model, Toeplitz, compound symmetry or Autoregressive (1) (AR[1]) covariance structure was used, following this sequence until convergence was achieved. […] When the covariance structure was not UN, the sandwich estimator for the variance-covariance matrix was derived, using the EMPIRICAL option in the PROC MIXED statement in SAS.
Similarly, an MMRM was used for the analysis of the following variables: changes from baseline in MADRS total score and HAM-A total score, and select individual item and subscale scores. For each model, the comparison of interest was between Compound 1 Capsules and matching placebo at the 15-day time point. Model-based point estimates (i.e., LS means), 95% confidence intervals, and p-values were reported.

[7] = Day 42, among subjects achieving remission or response at Day 15

C[C@@]1(O)CC[C@H]2[C@H](CC[C@@H]3[C@@H]2CC[C@]2(C)[C@@H](C(=O)Cn4cc(C#N)cn4)CC[C@@H]32)C1 [Compound 1]
tolerability in the trial ([1]; 20 mg and 30 mg): generally well tolerated
separation from placebo ([1]; 20 mg once a day for 14 days): did not separate from placebo
overall incidence of patients who experienced AEs ([1]; 20 mg): 50.0%
patients reporting SAEs during follow-up ([1]; 20 mg, complications of cocaine ingestion, Day 39): one
Fatigue incidence ([1]; 20 mg): 1.6%
Sedation incidence ([1]; 20 mg): 5.9%
treatment emergent AEs leading to study drug discontinuation ([1]; 20 mg): 1.6%
Dizziness incidence ([1]; 20 mg): 7.4%
Somnolence incidence ([1]; 20 mg): 5.9%
Nausea incidence ([1]; 20 mg): 5.3%
Diarrhea incidence ([1]; 20 mg): 5.9%
Headache incidence ([1]; 20 mg): 11.2%
HAM-D total score, LS Mean Difference from placebo ([1]; 30 mg (n=166) vs placebo (n=157), Day 3, p=0.016): −1.6
reduction in depressive symptoms in the HAM-D total score ([1]; 30 mg once a day for 14 days, Day 15 (primary endpoint), placebo 11.2): 12.6
HAM-D total score, LS Mean Difference, post-hoc ([1]; 30 mg vs placebo, Day 15, patients with HAM-D≥24, p=0.032): −2.3
HAM-D total score, LS Mean Difference from placebo ([1]; 30 mg, Day 8, p=0.008): −2.1
HAM-D total score, LS Mean Difference from placebo ([1]; 30 mg, Day 12, p=0.018): −2.1
HAM-D total score, LS Mean Difference from placebo ([1]; 30 mg, Day 15, p=0.115): −1.4
change from baseline in HAM-D total score, post-hoc ([1]; 30 mg, Day 15, patients with HAM-D≥24 (n=124), placebo −11.4): −13.7
change from baseline in HAM-D total score, post-hoc ([1]; 30 mg, Day 15, patients with measurable drug concentrations (n=151), placebo −11.2): −13.0
change from baseline in HAM-D total score, post-hoc ([1]; 30 mg, Day 15, patients with measurable drug concentrations and HAM-D≥24 (n=115), placebo −11.4): −14.0
HAM-D total score, LS Mean Difference from placebo ([1]; 30 mg, Day 42, p=0.807): −0.5
change from baseline in HAM-D total score ([1]; 30 mg, Day 42, placebo −11.7): −11.9
overall incidence of patients who experienced AEs ([1]; 30 mg): 54.2%
Fatigue incidence ([1]; 30 mg): 6.8%
Sedation incidence ([1]; 30 mg): 4.7%
treatment emergent AEs leading to study drug discontinuation ([1]; 30 mg): 2.1%
Dizziness incidence ([1]; 30 mg): 5.7%
Somnolence incidence ([1]; 30 mg): 6.8%
Nausea incidence ([1]; 30 mg): 3.6%
Diarrhea incidence ([1]; 30 mg): 6.3%
patients with serious adverse events (SAEs) during treatment ([1]; 30 mg, suicide attempt Day 5, bile duct stone after Day 2): Two
patients reporting SAEs during follow-up ([1]; 30 mg, syncope and associated injuries, Day 28): one
Headache incidence ([1]; 30 mg): 6.3%
AEs of loss of consciousness ([1]; all groups): no AEs of loss of consciousness
suicidal ideation or behavior by Columbia Suicide Severity Rating Scale (C-SSRS) ([1]; compared to baseline): no signal for increased suicidal ideation or suicidal behavior
depressive symptoms in long-term follow-up ([1]; patients who completed long-term follow-up up to 6 months, preliminary data): maintenance of improvement in depressive symptoms
adverse effect observed ([2]; administered in the morning): sedation/somnolence
tolerability ([2]; given in the evening): improved tolerability
efficacy and tolerability of the dose level (subjects with MDD [3]): efficacious and well-tolerated
mode of action at GABAA receptors [4]: positive allosteric modulator
subjects achieving remission or response (subjects with MDD [5]; Day 15): 78.6%
subjects with HAM-D score of 16 to 21 (subjects with MDD [5]; [7]): 18.2%
subjects with HAM-D ≥22 (subjects with MDD [5]; [7]): 6.1%
overall efficacy conclusion ([6]; 30 mg once a day for 15 days, compared to placebo): effective at treating postpartum depression
mean decrease from baseline in HAM-D total score ([6]; 30 mg once daily, Day 15, mean baseline 28.4 (2.09), placebo −13.6 (8.31)): −18.0 (8.36)
model-based between treatment group difference in HAM-D total score change (95% CI) ([6]; 30 mg vs placebo, Day 15, MMRM, p 0.0029): −4.2 (−6.9, −1.5)
model-based between treatment group difference in HAM-A total score change (95% CI) ([6]; 30 mg vs placebo, Day 15, p 0.0063): −3.90 (−6.7, −1.1)
model-based between treatment group difference in MADRS total score change (95% CI) ([6]; 30 mg vs placebo, Day 15, p=0.0182): −4.6 (−8.3, −0.8)
CGI-I response, model-based odds ratio (95% CI) ([6]; 30 mg vs placebo, Day 15, p=0.0280): 2.15 (1.09, 4.27)
HAM-D response, model-based odds ratio (95% CI) ([6]; 30 mg vs placebo, p=0.0050): 2.63 (1.34, 5.16)
HAM-D remission, model-based odds ratio (95% CI) ([6]; 30 mg vs placebo, p=0.0122): 2.50 (1.22, 5.11)
CGI-I response rate ([6]; 30 mg, Day 15, 53/74 subjects, placebo 38/73 (52.1%)): 71.6%
mean decrease from baseline in MADRS total score ([6]; 30 mg, Day 15, baseline 34.9 (4.41), placebo −17.7 (11.72)): −22.0 (11.64)
mean decrease from baseline in HAM-A total score ([6]; 30 mg, Day 15, mean baseline 26.1 (5.88), placebo −12.9 (8.57)): −16.5 (9.51)
HAM-D remission rate ([6]; 30 mg, 33/74 subjects, placebo 17/73 (23.3%)): 44.6%
HAM-D response rate ([6]; 30 mg, 53/74 subjects, placebo 35/73 (47.9%)): 71.6%
